Assay results published in US10434132B2, “Galactolipids-enriched plant extracts and the uses thereof” (ACADEMIA SINICA, priority 2013, dated 2019).

How the values were obtained:
[1] = test system: LPS/D-GaIN-challenged mice; test: LPS/D-GaIN-induced acute fulminant hepatitis in mice; assay type: in vivo
Experimental: The hepatoprotective effect in live body of compound dLGG isolated from Crassocephalum rabens (Asteraceae) in LPS/D-GaIN-induced fulminant hepatitis were investigated and compared with the hepatoprotective drug, silymarin (SM). Mice were randomly separated into four groups (n=6 per group) for treatments: vehicle; LPS/D-GaIN; 50 mg/kg of silymarin (Post-SM50); and 10 mg/kg dLGG (post-dLGG10), and all treatments were given intraperitoneally. One hour after the mice treated with 500 ng LPS and 250 μL saline containing 25 mg D-GaIN (Huang et al., 2012), the dLGG and silymarin were given intraperitoneally. Besides, the other two groups of mice were treated dLGG or silymarin continuously for three days to perform the protection effect of dLGG against LPS/D-GaIN induced fulminate hepatitis. Eight hours after LPS/D-GaIN injection, blood samples were collected through retro-orbital bleeding, and then all mice were sacrificed to collect blood samples and liver tissues.
(§1) Liver, lung and kidney tissues were fixed in 10% buffered formalin then it were embedded into paraffin. The paraffin-embedded tissues were sliced (8-μm) and stained by hematoxylin and eosin (H&E). Besides, sections of paraffin-embedded liver and lung (4-μm for thickness) were heat immobilized and deparaffinized by use of xylene and rehydrated in a graded series of ethanol with a final wash in distilled water, and finally soaked into decloaking chamber (Biocare Medical) containing Target Retrieval Solution (DakoCytomation) for antigen retrieval.
In situ detection of apoptotic cells was conducted according to the manufacturer's protocol (Chemicon). It is using terminal deoxynucleotidyl transferase to work on nucleotide sequence to […] for terminal deoxynucleotidyl transferase-mediated dUTP nick end labeling. Finally, AxioVision software (Carl Zeiss MicroImaging, Inc.) was used to analyze the number of TUNEL-positive cells.
(§2) Blood samples of tested mice were centrifuged under 4° C., 1400× g for 15 minutes to separate serum from blood. Commercial kit purchased from Randox Laboratories (UK) was used to determine the activity of aspartate aminotransferase (AST) and alanine aminotransferase (ALT) in serum supernatants.

[2] = test system: LPS-challenged mice; test: LPS-induced acute inflammation and sepsis in mice; assay type: in vivo
Experimental: (§3) The plant components or the drugs were all injected an hour before administration of LPS. Another animal group was only treated with 25 mg/kg dLGG (dLGG 25 only). All groups were sacrificed after 24 hours and blood samples were collected by retro-orbital bleeding before scarification of mice and organ tissues were collected immediately.
as §1
Immunohistochemistry with liver, lung and kidney tissues were done by incubating the samples into F4/80 primary antibody for overnight respectively. After subsequent washing, each of the samples was incubated using florescent-labeled secondary antibody. Florescent images of the macrophage cell infiltration (positive F4/80 stained cell) were captured by AxioVision software (Carl Zeiss MicroImaging, Inc.) and then analyzed.
as §2
Serum levels of interleukin (IL-6) and tumor necrosis factor-alpha (TNF-α) were determined using a commercial kit from eBioscience.

[3] = test system: hypoxia inducible factor-1α (HIF-1α); test: HIF-1α expression in LPS-challenged mice; assay type: in vivo; settings: FIG. 9A, 9C; pre-treatment before LPS
Experimental: as §3

[4] = test system: PPAR-δ; test: PPAR-δ expression in LPS-challenged mice; assay type: in vivo; settings: FIG. 9B, 9D; pre-treatment before LPS
Experimental: as §3

[5] = dLGG only treatment of mice without LPS challenge; assay type: in vivo; settings: dLGG 25 mg/kg only, no LPS, 24 hours
Experimental: as §3
Moreover, one group of mice was treated with dLGG (25 mg/kg) without LPS challenge. All the mice were sacrificed after 24 hours. Mice sera were collected to measure and compare the concentration of IL-6 and TNF-α, and the levels of AST and ALT.

[6] = test system: B16 melanoma cells; test: Depigmentation assay in B16 melanoma cells; assay type: cell-based; settings: FIG. 10B; 45 μM, vs vehicle control
Experimental: B16 melanoma cell line was obtained from ATCC (Manassas, Va.) and grown in RPMI medium 1640 (Gibco/BRL) supplemented with 10% heat-inactivated fetal bovine serum, 100 unit/mL penicillin and 100 μg/mL streptomycin, at 37° C. in a humidified 5% CO2 incubator.
B16 melanoma cell line was plated on to 10 cm culture dishes at an initial density of 1×10^5 cells dish^−1 and then cultured under the same condition described above. After 12 hours of seeding, the cells were treated by vehicle DMSO, kojic acid (KA), ethyl acetate (EA) fractions of CR's water and ethanolic extractions (Hou et al., 2007) for 72 hours. These cells were harvested by centrifuge and visually evaluated the color of these cell pellets. In another experiment, depigmentation effect of the single compound dLGG was observed and evaluated at different time points with the same procedure.

[7] = test system: MITF; test: Western blot of MITF expression in B16 melanoma cells; assay type: cell-based; settings: FIG. 10C, 45 μM dLGG
Experimental: (§4) The cellular proteins were produced according to previously published method (Chiang et al., 2005). Protein content was measured by Bradford method (Bio-Rad).
(§5) Molecular mechanism of dLGG depigmentation effect was further studied. Western blotting assay was preceded for testing the effect of dLGG on tyrosinase and MITF expression.

[8] = test system: tyrosinase; test: Western blot of tyrosinase expression in B16 melanoma cells; assay type: cell-based; settings: FIG. 10C, 45 μM dLGG
Experimental: as §4, §5

[9] = FIG. 5A, dLGG 10 mg/kg or SM 50 mg/kg i.p. 1 hour after LPS/D-GaIN, blood at 8 hours
[10] = high dose (CR-EA 50 mg/kg, dLGG 25 mg/kg) 1 hour before 10 mg/kg LPS, serum at 24 hours

## CC/C=C\C/C=C\C/C=C\CCCCCCCC(=O)OC[C@H](CO[C@@H]1O[C@H](CO)[C@H](O)[C@H](O)[C@H]1O)OC(=O)CCCCCCC/C=C\C/C=C\C/C=C\CC [dLGG, 1,2,di-O-α-linolenoyl-3-O-β-galactopyranosyl-sn-glycerol]
[1]; [9]
  serum ALT level: significantly inhibit
  serum AST level: significantly inhibit
[1]; FIG. 5B, dLGG 10 mg/kg or SM 50 mg/kg i.p. 1 hour after LPS/D-GaIN
  liver histology H&E (infiltration of inflammatory cells into liver lobules, tissue destruction, erythrocyte influx): attenuated
[1]; FIG. 5C, dLGG 10 mg/kg i.p. after LPS/D-GaIN
  numbers of apoptosis cells, TUNEL positive-stained cells in liver tissue: significantly decreased
[1]; pre-treated 1 or 10 mg/kg 1 hour before LPS/D-GaIN-challenge, data not shown
  protection against LPS/D-GaIN-induced fulminant hepatic failure: significant protection effect
[2]; FIG. 8A, pre-treated 1 hour before LPS, simvastatin 10 mg/kg
  sepsis-induced acute kidney injury, renal histology (H&E): remarkably protective effect
[2]; FIG. 8C, pre-treated 1 hour before LPS, simvastatin 10 mg/kg
  infiltration and activation of macrophages (F4/80 immunohistology staining): decreased infiltration and activation of macrophages
[2]; dLGG 25 mg/kg after LPS-challenge, data not shown
  damages in mice liver, lung and kidney caused by LPS: effectively reduce damages
[2]; [10]
  serum ALT decrease: 2.3 times
  serum AST decrease: 1.8 times
  serum IL-6 decrease: 3.5 times
  serum TNF-α decrease: 3.0 times
[3]
  HIF-1α expression: down-regulated
[4]
  PPAR-δ expression: down-regulated
[5]
  harm to mice: harmfulless to mice
[6]
  depigmentation of B16 melanoma cells at different time points: significantly depigmentation in a time-dependent manner
[7]
  expression of MITF (western blot): inhibit the expression
[8]
  expression of tyrosinase (western blot): inhibit the expression
